Values after ≈ are worked out from the molar mass of the structure shown. Like-named read-outs stand apart in the source and are kept apart here. Marks after values point to notes of the source that are not given here.
Experiments:
UV-Vis metal(II) binding = type: physicochemical; settings: UV-Vis kinetics, compared to HP 1
Experimental: The rates of halogenated phenazine-copper(II) complex formation were independently evaluated via UV-Vis spectrometry following addition of 0.5 equivalents copper(II) sulfate to stirring solutions of HP (10 mM, 4 mL) in dimethyl sulfoxide. Spectral scanning was performed from 200 to 800 nm in 2 nm increments. The disappearance of HPs 1, 17 and 22 was observed over the indicated time points. The halogenated phenazine-copper(II) complex formation yielded a loss in absorbance due to precipitation.

MtB H37Ra = experiment: MIC assay for Mycobacterium tuberculosis; type: cell-based; settings: 168 h, seven days
MRSE 35984 [1] = experiment: MIC broth microdilution assay; type: cell-based, Staphylococcus epidermidis; settings: Staphylococcus epidermidis, MRSE
[2] = LDH release assay for HeLa cytotoxicity; type: cell-based; settings: human, HeLa cells; LDH release, 24 hours; tested at 25, 50 and 100 µM; read-out: HeLa Cytotox. IC50
VRE 700221 [3] = experiment: MIC broth microdilution assay; type: cell-based, Enterococcus faecium; settings: Enterococcus, VRE
MRSA BAA-44 = experiment: MIC broth microdilution assay; type: cell-based; settings: Staphylococcus aureus
MRSA-1 = experiment: MIC broth microdilution assay; type: cell-based, Staphylococcus aureus; settings: Staphylococcus aureus, MRSA
[4] = Hemolysis assay with red blood cells; settings: human, pH 7.2
MRSA BAA-1707 [5] = experiment: Calgary Biofilm Device (CBD) MBC/MBEC assay; type: cell-based, Staphylococcus aureus
MRSA BAA-1707 [6] = experiment: MIC assay with metal(II) cation co-treatment; type: cell-based, Staphylococcus aureus
MRSA BAA-1707 [7] = experiment: MIC broth microdilution assay; type: cell-based, Staphylococcus aureus; settings: for MIC: Staphylococcus aureus
VRE 700221 [8] = experiment: Calgary Biofilm Device (CBD) MBC/MBEC assay; type: cell-based, Enterococcus faecium; settings: for MBC: read-out: VRE 700221 MBC
four MRSA isolates = experiment: MIC assays, panel of four MRSA isolates; type: cell-based; settings: Staphylococcus aureus, range over isolates, read-out: MIC against a panel of four MRSA isolates
MRSE 35984 [9] = experiment: Calgary Biofilm Device (CBD) MBC/MBEC assay; type: cell-based, Staphylococcus epidermidis; settings: Staphylococcus epidermidis, MRSE
human red blood cells = settings: human, 1 h, pH 7.2
S. epidermidis = experiment: MIC assays, S. epidermidis strains; type: cell-based; settings: Staphylococcus epidermidis; range over strains
MRSA-2 = experiment: MIC broth microdilution assay; type: cell-based, Staphylococcus aureus; settings: Staphylococcus aureus, MRSA; Table 1; read-out: MIC MRSA-2
S. epi 12228 = experiment: MIC broth microdilution assay; type: cell-based, Staphylococcus epidermidis; settings: Staphylococcus epidermidis, 12228; Table 1; read-out: MIC S. epi 12228
MRSA-1707 biofilms = experiment: Live/Dead staining (fluorescence microscopy) of biofilms; settings: 0.1, 1 and 5 µM, 24 hours
Experimental: A mid-log culture of MRSA BAA-1707 was diluted 1:1,000-fold and 500 µL was transferred to each compartment of a 4 compartment CELLview dish (Greiner Bio-One 627871). The dish was then incubated for 24 hours at 37 °C. After this time, the cultures were removed and the plate was washed with 0.9% saline. The dish was then treated with the compounds in fresh media at various concentrations. DMSO was used as our negative control in this assay. The dish was incubated with the compound for 24 hours at 37 °C. After this time, the cultures were removed and the dish was washed with 0.9% saline for 2 minutes. Saline was then removed and 500 µL of the stain (Live/Dead BacLight Viability Kit, Invitrogen) were added for 15 minutes and left in the dark. After this time, the stain was removed and the dish was washed twice with 0.9% saline. Then the dish was fixed with 500 µL 4% paraformaldehyde in PBS for 30 minutes. Images of remaining MRSA biofilms were then taken with a fluorescence microscope. All data were analyzed using ImageJ software from three independent experiments.
E.) Live / Dead staining (Fluorescence Microscopy) of MRSA BAA-1707 Biofilms: […]
the cultures were removed and the dish was washed with 0.9% saline for 2 minutes. […] Images of remaining MRSA biofilms were then taken with a fluorescence microscope. All data were analyzed using Image J software from three

[10] = Table 3, read-out: MRSE 35984 MIC
[11] = Table 1, read-out: MIC MRSA BAA-44
[12] = Staphylococcus aureus, 24 h, CBD, planktonic killing, 24 hours treatment, read-out: MRSA BAA-1707 MBC
[13] = Staphylococcus aureus, Fe(II) co-treatment plate, lanes without metal, read-out: MIC
[14] = Staphylococcus aureus, Table 2, MRSA BAA-1707, no metal(II) cation added, read-out: MIC
[15] = Staphylococcus aureus, Zn(II) extended plate assay, lanes without metal, read-out: MIC
[16] = Staphylococcus aureus, copper(II) at 200 µM co-treatment, read-out: MIC w/Cu2+
[17] = Staphylococcus aureus, iron(II) at 200 µM co-treatment, read-out: MIC w/Fe2+
[18] = Staphylococcus aureus, magnesium(II) at 200 µM co-treatment, read-out: MIC w/Mg2+
[19] = Staphylococcus aureus, zinc(II) at 200 µM co-treatment, read-out: MIC w/Zn2+
[20] = Table 1, three independent experiments, read-out: MIC MRSA BAA-1707
[21] = Table 3, read-out: MRSA BAA-1707 MIC
[22] = single plate shown as picture, read-out: MIC (µM), MIC Assay against MRSA BAA-1707

SMILES | rate of copper(II) chelation (UV-Vis metal(II) binding) | MIC (MtB H37Ra) [µM] | MIC (MRSE 35984 [1]; [10]) [µM] | IC50 at 24 h [2] [µM] | MIC (MRSA BAA-44; [11]) [µM] | MIC (MRSA-1; Table 1, read-out: MIC MRSA-1) [µM] | hemolysis at 1 h, 200 µM [4] [%] | MBC (MRSA BAA-1707 [5]; [12]) [µM] | MIC (MRSA BAA-1707 [6]; [13]) [µM] | MIC (MRSA BAA-1707 [6]; [14]) [µM] | MIC (MRSA BAA-1707 [6]; [15]) [µM] | MIC (MRSA BAA-1707 [6]; [16]) [µM] | MIC (MRSA BAA-1707 [6]; [17]) [µM] | MIC (MRSA BAA-1707 [6]; [18]) [µM] | MIC (MRSA BAA-1707 [6]; [19]) [µM] | MIC (MRSA BAA-1707 [7]; [20]) [µM] | MIC (MRSA BAA-1707 [7]; [21]) [µM] | MIC (MRSA BAA-1707 [7]; [22]) [µM] | MIC (four MRSA isolates) [µM] | other results
Oc1c(Br)cc(Br)c2nc3c(Cl)cccc3nc12 [HP 21] | faster rate than HP 1 | 50 (≈ 19.4 µg/mL) | 0.3 (≈ 0.117 µg/mL) | > 100 | 0.59 (≈ 0.229 µg/mL) | ≤ 0.1 | ≤ 1 | 6.25 (≈ 2.43 µg/mL) | 0.1 | 0.1 | 0.1 | 6.25 | 0.59 | 0.15 | 0.15 | 0.05 to 0.3 (≈ 0.0194 to 0.117 µg/mL) | 0.08 (≈ 0.0311 µg/mL) | 0.1 (≈ 0.0388 µg/mL) | 0.05 to 0.59 (≈ 0.0194 to 0.229 µg/mL) | MIC (MRSE 35984 [1]; single plate shown as picture, read-out: MIC (µM), MIC Assay Against MRSE 35984): 0.2 µM (≈ 0.0777 µg/mL); MIC (VRE 700221 [3]; Table 3, read-out: VRE 700221 MIC): 1.56 µM (≈ 0.606 µg/mL); MIC (VRE 700221 [3]; single plate shown as picture, read-out: MIC (µM), MIC Assay Against VRE 700221): 1.56 µM (≈ 0.606 µg/mL); MIC (MRSA-1; single plate shown as picture, read-out: MIC (µM), MIC Assay Against MRSA-1): 0.1 µM (≈ 0.0388 µg/mL); MBC (MRSA BAA-1707 [5]; Staphylococcus aureus, 24 h, supplement page 27, second CBD plate, read-out: MRSA Planktonic Killing MBC): 6.25 µM (≈ 2.43 µg/mL); MIC (MRSA BAA-1707 [6]; extended plate assay, 200 µM Zn(II), read-out: MIC (µM) + Zn(II)): 0.10 µM; MIC (MRSA BAA-1707 [6]; single plate, 200 µM Fe(II), read-out: MIC (µM) + Fe(II)): 0.78 µM; MIC MRSA BAA-1707 (MRSA BAA-1707 [7]; Table 1, three independent experiments): 0.08^a µM; VRE 700221 MBEC (VRE 700221 [8]; CBD, biofilm eradication): 25/25 µM; MBC (VRE 700221 [8]; Enterococcus, VRE, CBD, planktonic killing): 25 µM (≈ 9.71 µg/mL)
O=C(O)CN(CCN(CC(=O)O)CC(=O)O)CC(=O)O [EDTA, ethylenediaminetetraacetic acid, reference compound] |  |  |  |  |  | 12.5 (≈ 3.65 µg/mL) |  |  |  | 25 |  | 50 | 50 | 50 | 50 | 25 (≈ 7.31 µg/mL) | 25 (≈ 7.31 µg/mL) |  |  | minimal effective concentration (MRSE 35984 [9]; 24 h, read-out: MRSE 35984 MBEC): > 2000 µM; MBC (MRSE 35984 [9]; read-out: MRSE 35984 MBC): 1000 µM (≈ 292 µg/mL); MBC (MRSA BAA-1707 [5]; Staphylococcus aureus, 24 h, read-out: MRSA BAA-1707 MBC): > 2000 µM; minimal effective concentration (MRSA BAA-1707 [5]; Staphylococcus aureus, 24 h, read-out: MRSA BAA-1707 MBEC): > 2000 µM; Hemolysis at 200 µM (%) (human red blood cells): ≤1%; minimal effective concentration (VRE 700221 [8]; Enterococcus, VRE, 24 h, read-out: VRE 700221 MBEC): 93.8 µM; MBC (VRE 700221 [8]; Enterococcus, VRE): > 2000 µM
Cc1cccc2nc3c(O)c(Br)cc(Br)c3nc12 [HP 17, 6-methyl-2,4-dibromo-1-hydroxyphenazine] | faster rate than HP 1 | 25 (≈ 9.2 µg/mL) | 0.3 (≈ 0.11 µg/mL) | > 100 | 0.39 (≈ 0.144 µg/mL) | ≤ 0.1 | 6.7 | 6.25 (≈ 2.3 µg/mL) | 0.39 | 0.3 | 0.2 | 75 | 12.5 | 0.3 | 0.05 |  | 0.3 (≈ 0.11 µg/mL) | 0.2 (≈ 0.0736 µg/mL) | 0.05 to 0.59 (≈ 0.0184 to 0.217 µg/mL) | MIC (S. epidermidis): 0.3 to 0.39 µM (≈ 0.11 to 0.144 µg/mL); MIC (MRSA-2): 0.3 µM (≈ 0.11 µg/mL); MIC (S. epi 12228): 0.39 µM (≈ 0.144 µg/mL); Live/Dead staining response of established biofilms (MRSA-1707 biofilms): potent biofilm eradication and clearance response; MIC (MRSA BAA-44; single plate shown as picture, read-out: MIC (µM), MIC Assay Against MRSA BAA-44): 0.39 µM (≈ 0.144 µg/mL); MRSA BAA-1707 MBEC (MRSA BAA-1707 [5]; CBD, biofilm eradication, 24 hours treatment): 6.25/6.25 µM; MRSA-1707 Biofilm Eradication MBEC (MRSA BAA-1707 [5]; Figure 7A, single CBD plate): 6.25 µM; MBC (MRSA BAA-1707 [5]; Staphylococcus aureus, 24 h, supplement page 27, first CBD plate, read-out: MRSA Planktonic Killing MBC): 6.25 µM (≈ 2.3 µg/mL); MBC (MRSA BAA-1707 [5]; Staphylococcus aureus, Figure 7A, single CBD plate, read-out: MRSA-1707 Planktonic Eradication MBC): 6.25 µM (≈ 2.3 µg/mL); MIC (MRSA BAA-1707 [6]; Staphylococcus aureus, Cu(II) co-treatment plate, lanes without metal, read-out: MIC): 0.2 µM; MIC (MRSA BAA-1707 [6]; Staphylococcus aureus, Mg(II) co-treatment plate, lanes without metal, read-out: MIC): 0.2 µM; MIC (MRSA BAA-1707 [6]; Staphylococcus aureus, extended plate assay, 200 µM Zn(II), read-out: MIC (µM) + Zn(II)): 0.05 µM; MIC (MRSA BAA-1707 [6]; Staphylococcus aureus, single plate, 200 µM Fe(II), read-out: MIC (µM) + Fe(II)): 12.5 µM; MIC (MRSA BAA-1707 [6]; Staphylococcus aureus, single plate, 200 µM Mg(II), read-out: MIC (µM) + Mg(II)): 0.2 µM; MIC (MRSA BAA-1707 [6]; single plate, 200 µM Cu(II), read-out: MIC (µM) + Cu(II)): 50 µM

Source: publication PMC5435703 (Scientific Reports, 2017)
